Data set [1] relates to childhood ALL. The conditions noted are these: CCG-1952, cited from earlier work; for event-free survival: at 5 years, p = 0.02.
For data set [2], the system named is TPMT wildtype lymphoblastoid cells. In words: cells. Particulars: Homo sapiens, Lymphoblastoid cell, 72 h, read-out: Mean percentage viable cells after 72 h.
For data set [3] the following is noted: in vivo; cited from earlier work.
The test system of data set [4] is patients with childhood ALL. Particulars: cited from earlier work; for central nervous system (CNS) relapse: COALL-92, maintenance, p = 0.053.
The test system of data set [5] is childhood ALL. The conditions noted are these: UK MRC ALL 97, cited from earlier work.

For `Sc1ncnc2nc[nH]c12` [MP, 6-mercaptopurine], the event-free survival with childhood ALL [1] was 77.1%. In data set [2], the viability at 0.125 µM was determined as 89.3%, the viability at 0.25 µM was 84.7%, the viability at 0.5 µM is 79.8% and the viability at 1 µM was 73.1%. In data set [3], the half lives result is listed as “approximately 21 minutes”. In addition, in data set [4], the “central nervous system (CNS) relapse” value is reported as 0.8%. Also, in data set [4] (COALL-92), the Treatment interruptions was 2.8 % of maintenance treatment weeks. Further, the “patients who developed non-fatal hepatic toxicity with features of veno-occlusive disease (VOD)” value in the data set on childhood ALL [5] is reported as “less than 2%”.

In the case of `Nc1nc2nc[nH]c2c(=S)[nH]1` [TG, 6-thioguanine], in the data set with childhood ALL [1], the event-free survival is listed as 85.1% and the “patients with hepatic VOD-like symptoms” value is given as “approximately 20%”. For the same molecule, in data set [2], the viability at 0.0625 µM was 81.2%, the viability at 0.125 µM turned out to be 75.9% and the viability at 0.25 µM was determined as 71.3%. In addition, the half lives in data set [3] was ~90 min. The “central nervous system (CNS) relapse” value in data set [4] is listed as 3.4%. Also, in data set [4] (COALL-92), the Treatment interruptions is on record as 4.7 % of maintenance treatment weeks; the “Treatment interruptions, higher rate compared to the 6-mercaptopurine arm” value is 1.7 fold; the “incidence of thrombocytopenia (< 100 x 10^9/l) without evidence of leukocytopenia (<1 x 10^9/l), higher compared to the 6-mercaptopurine arm” value is 7.5 fold. The “patients who developed non-fatal hepatic toxicity with features of veno-occlusive disease (VOD)” value in the data set on childhood ALL [5] is on record as 11%. For the same molecule, the “isolated disease recurrence in the CNS, odds ratio” value in the data set on childhood ALL [5] (vs 6-mercaptopurine, 95% confidence interval 0.30 - 0.92) was 0.53. The “risk of death in remission, odds ratio” value with childhood ALL [5] (vs 6-mercaptopurine, 95% confidence interval 1.20 - 4.14, mainly due to infections) is listed as 2.22.

Values taken from patent EP2098236A1, “Cytostatic compositions” (Medizinische Hochschule Hannover, priority 2008, dated 2009).
